From the NIST ThermoML archive (doi:10.1021/acs.jced.5b00724)
Several values for one entry are separate records, joined by “and”; a condition that tells them apart may be missing. Equal values may be shown once.

Tests used:
[1] = 350.12 K; Liquid; Closed cell (Static) method
[2] = refractive index (Na D-line) (dimensionless); conditions: 298.15 K; 101.33 kPa; Liquid; Standard Abbe refractometry
[3] = wn = mass fraction of the nth substance listed; conditions: 298.1 K, Liquid, Vibrating tube method
[4] = excess molar enthalpy (molar enthalpy of mixing); xn = mol fraction of the nth substance listed; conditions: 130 kPa, Liquid, Calvet calorimetry

O [water]
Conditions	refractive index	vapor or sublimation pressure [kPa]
[1]	–	41.9
[2]	1.3325	–

CC1CCC(=O)O1 (stereo not drawn) [γ-valerolactone] + O
Conditions	excess molar enthalpy	mass density [kg/m3]
[3], 107 kPa, w2 = 0	–	1048.8
[3], 107 kPa, w2 = 0.1004	–	1047
[3], 107 kPa, w2 = 0.2005	–	1044.9
[3], 107 kPa, w2 = 0.3025	–	1041.7
[3], 107 kPa, w2 = 0.4	–	1037.6
[3], 107 kPa, w2 = 0.5	–	1032.9
[3], 107 kPa, w2 = 0.6	–	1027.1
[3], 108 kPa, w2 = 0.6999	–	1021.1
[3], 109 kPa, w2 = 0.7999	–	1013.8
[3], 109 kPa, w2 = 0.8997	–	1005.5
[4], 303.2 K, x2 = 0.097	0.124 kcal/mol	–
[4], 303.2 K, x2 = 0.203	0.197 kcal/mol	–
[4], 303.2 K, x2 = 0.303	0.222 kcal/mol	–
[4], 303.2 K, x2 = 0.4	0.217 kcal/mol	–
[4], 303.2 K, x2 = 0.514	0.194 kcal/mol	–
[4], 303.2 K, x2 = 0.601	0.15 kcal/mol	–
[4], 303.2 K, x2 = 0.7	0.107 kcal/mol	–
[4], 303.2 K, x2 = 0.801	0.0581 kcal/mol	–
[4], 303.2 K, x2 = 0.841	0.0387 kcal/mol	–
[4], 303.2 K, x2 = 0.894	0.0127 kcal/mol	–
[4], 303.2 K, x2 = 0.9	0.0103 kcal/mol	–
[4], 303.2 K, x2 = 0.914	0.00308 kcal/mol and 0.00239 kcal/mol	–
[4], 303.2 K, x2 = 0.93	-0.00437 kcal/mol	–
[4], 303.2 K, x2 = 0.946	-0.0098 kcal/mol	–
[4], 303.2 K, x2 = 0.9815	-0.0182 kcal/mol	–
[4], 303.2 K, x2 = 0.9906	-0.0103 kcal/mol	–
[4], 303.2 K, x2 = 0.9962	-0.00416 kcal/mol	–
[4], 303.2 K, x2 = 0.9981	-0.0021 kcal/mol	–
[4], 322.6 K, x2 = 0.204	0.207 kcal/mol	–
[4], 322.6 K, x2 = 0.401	0.249 kcal/mol	–
[4], 322.6 K, x2 = 0.503	0.232 kcal/mol	–
[4], 322.6 K, x2 = 0.602	0.197 kcal/mol	–
[4], 322.6 K, x2 = 0.7	0.152 kcal/mol	–
[4], 322.6 K, x2 = 0.801	0.097 kcal/mol	–
[4], 322.6 K, x2 = 0.9	0.0402 kcal/mol	–
[4], 322.6 K, x2 = 0.95	0.0116 kcal/mol	–
